Test results taken from patent US20170050957A1, “4-AMINO-6-(HETEROCYCLIC)PICOLINATES AND 6-AMINO-2-(HETEROCYCLIC)PYRIMIDINE-4-CARBOXYLATES AND THEIR USE AS HERBICIDES” (Dow AgroSciences LLC, priority 2013, published 2017).
Like-named read-outs stand apart in the source and are kept apart here.

Legend:
[1] = system: Key Broadleaf Weed and Crop Species; assay: Post-emergent Test II herbicidal activity (Table 15); format: in vivo; conditions: post-emergence, 336 h, 14 d; for pest or weed control at 35 g/ha: 35 g ai/ha; for pest or weed control at 70 g/ha: 70 g ai/ha; for pest or weed control at 140 g/ha: 140 g ai/ha
In short: (§1)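 Greenhouse-grown seedlings at first/second true leaf receive a track spray at 187 L/ha, using a highest rate plus two-fold serial dilutions down to 1/16×. Watering is by subirrigation to avoid wash-off. Percent injury (0-100) is judged by eye at 14 d against untreated plants.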

[2] = system: Key Grass and Sedge Weeds as well as Grass Crops; assay: Post-emergent Test II herbicidal activity (Table 16); format: in vivo; conditions: post-emergence, 336 h, 14 d; for pest or weed control at 35 g/ha: 35 g ai/ha; for pest or weed control at 70 g/ha: 70 g ai/ha; for pest or weed control at 140 g/ha: 140 g ai/ha
In short: as §1

[3] = Abutilon theophrasti, velvetleaf (Abutilon theophrasti), read-out: Visual Growth Reduction (%) 14 Days After Application, ABUTH
[4] = Amaranthus retroflexus, redroot pigweed (Amaranthus retroflexus), read-out: Visual Growth Reduction (%) 14 Days After Application, AMARE
[5] = Brassica napus, oilseed rape, canola (Brassica napus), read-out: Visual Growth Reduction (%) 14 Days After Application, BRSNN
[6] = Chenopodium album, lambsquarters (Chenopodium album), read-out: Visual Growth Reduction (%) 14 Days After Application, CHEAL
[7] = Euphorbia heterophylla, wild poinsettia (Euphorbia heterophylla), read-out: Visual Growth Reduction (%) 14 Days After Application, EPHHL
[8] = Helianthus annuus, sunflower (Helianthus annuus), read-out: Visual Growth Reduction (%) 14 Days After Application, HELAN
[9] = Cyperus esculentus, yellow nutsedge (Cyperus esculentus), read-out: Visual Growth Reduction (%) 14 Days After Application, CYPES
[10] = Echinochloa crus-galli, barnyardgrass (Echinochloa crus-galli), read-out: Visual Growth Reduction (%) 14 Days After Application, ECHCG
[11] = Oryza sativa, rice (Oryza sativa), read-out: Visual Growth Reduction (%) 14 Days After Application, ORYSA
[12] = Setaria faberi, giant foxtail (Setaria faberi), read-out: Visual Growth Reduction (%) 14 Days After Application, SETFA
[13] = Triticum aestivum, wheat, spring (Triticum aestivum), read-out: Visual Growth Reduction (%) 14 Days After Application, TRZAS
[14] = Zea mays, maize, corn (Zea mays), read-out: Visual Growth Reduction (%) 14 Days After Application, ZEAMX

| Compound | pest or weed control at 35 g/ha [1, 3] [%] | pest or weed control at 70 g/ha [1, 3] [%] | pest or weed control at 140 g/ha [1, 3] [%] | pest or weed control at 35 g/ha [1, 4] [%] | pest or weed control at 70 g/ha [1, 4] [%] | pest or weed control at 140 g/ha [1, 4] [%] | pest or weed control at 35 g/ha [1, 5] [%] | pest or weed control at 70 g/ha [1, 5] [%] | pest or weed control at 140 g/ha [1, 5] [%] | pest or weed control at 35 g/ha [1, 6] [%] | pest or weed control at 70 g/ha [1, 6] [%] | pest or weed control at 140 g/ha [1, 6] [%] | pest or weed control at 35 g/ha [1, 7] [%] | pest or weed control at 70 g/ha [1, 7] [%] | pest or weed control at 140 g/ha [1, 7] [%] | pest or weed control at 35 g/ha [1, 8] [%] | pest or weed control at 70 g/ha [1, 8] [%] | pest or weed control at 140 g/ha [1, 8] [%] | melting point [°C] | pest or weed control at 35 g/ha [2, 9] [%] | also measured |
| --- | --- | --- | --- | --- | --- | --- | --- | --- | --- | --- | --- | --- | --- | --- | --- | --- | --- | --- | --- | --- | --- |
| COC(=O)c1nc(-c2ccc3cc[nH]c3c2)nc(N)c1OC [Compound 1.32] | 0 to 29 | 0 to 29 | 0 to 29 | 0 to 29 | 30 to 44 | 60 to 74 | 30 to 44 | 45 to 59 | 60 to 74 | 0 to 29 | 0 to 29 | 75 to 84 | 0 to 29 | 60 to 74 | 85 to 94 | 45 to 59 | 60 to 74 | 75 to 84 | 190 to 191 | 0 to 29 | pest or weed control at 70 g/ha [2, 9]: 0 to 29%; pest or weed control at 140 g/ha [2, 9]: 0 to 29%; pest or weed control at 35 g/ha [2, 10]: 0 to 29%; pest or weed control at 70 g/ha [2, 10]: 0 to 29%; pest or weed control at 140 g/ha [2, 10]: 0 to 29%; pest or weed control at 35 g/ha [2, 11]: 0 to 29%; pest or weed control at 70 g/ha [2, 11]: 0 to 29%; pest or weed control at 140 g/ha [2, 11]: 0 to 29%; pest or weed control at 35 g/ha [2, 12]: 0 to 29%; pest or weed control at 70 g/ha [2, 12]: 0 to 29%; pest or weed control at 140 g/ha [2, 12]: 0 to 29%; pest or weed control at 35 g/ha [2, 13]: 0 to 29%; pest or weed control at 70 g/ha [2, 13]: 0 to 29%; pest or weed control at 140 g/ha [2, 13]: 0 to 29%; pest or weed control at 35 g/ha [2, 14]: 0 to 29%; pest or weed control at 70 g/ha [2, 14]: 0 to 29%; pest or weed control at 140 g/ha [2, 14]: 0 to 29% |
| COc1c(N)nc(-c2ccc3cc[nH]c3c2)nc1C(=O)O [Compound 1.33] | 0 to 29 | 0 to 29 | 0 to 29 | 60 to 74 | 60 to 74 | 75 to 84 | 95 to 100 | 95 to 100 | 95 to 100 | 0 to 29 | 45 to 59 | 60 to 74 | 45 to 59 | 60 to 74 | 75 to 84 | 60 to 74 | 60 to 74 | 75 to 84 | 154 to 157 | 0 to 29 | pest or weed control at 70 g/ha [2, 9]: 0 to 29%; pest or weed control at 140 g/ha [2, 9]: 0 to 29%; pest or weed control at 35 g/ha [2, 10]: 0 to 29%; pest or weed control at 70 g/ha [2, 10]: 0 to 29%; pest or weed control at 140 g/ha [2, 10]: 0 to 29%; pest or weed control at 35 g/ha [2, 11]: 0 to 29%; pest or weed control at 70 g/ha [2, 11]: 0 to 29%; pest or weed control at 140 g/ha [2, 11]: 0 to 29%; pest or weed control at 35 g/ha [2, 12]: 0 to 29%; pest or weed control at 70 g/ha [2, 12]: 0 to 29%; pest or weed control at 140 g/ha [2, 12]: 0 to 29%; pest or weed control at 35 g/ha [2, 13]: 0 to 29%; pest or weed control at 70 g/ha [2, 13]: 0 to 29%; pest or weed control at 140 g/ha [2, 13]: 30 to 44% |
